Data from US9056136B2, “Weakly basic 2-nitroimidazoles for the non-invasive detection of tissue hypoxia” (Natural Pharmacia International, Inc., priority 2006, dated 2015).
Where two headings read alike, the source gives them in different places.

Tests used:
V79 cells = details: cited from earlier work
[1] = system: Chinese hamster V79-4 lung fibroblasts; test: pH-dependent binding to anoxic V79-4 cells, ELISA of cell lysates; assay type: cell-based; details: for binding (ng/g protein ± SE): anoxic V79 cells, 200 uM, 3 hours, 5% CO2+95% nitrogen
Excerpt: Weakly basic 2-nitroimidazole hypoxia compounds of the invention are more sensitive detectors of hypoxia in cells at high pH than are 2-nitroimidazoles that lack a weakly basic moiety, such as CCI-103F. pH-dependent binding for weakly basic pimonidazole was compared to that for CCI-103F in Chinese hamster V79-4 lung fibroblasts under conditions of short-term anoxia. The pH range used (6.4 to 7.4) encompasses about 90% of extracellular pHs measured in human tumors. Eagle's minimum essential medium (MEM) containing 4.5 g/L glucose, but no carbonate, was warmed to 37° C. in a warm room and adjusted to pH 6.4, 6.8 and 7.4 by the addition of sodium bicarbonate under a stream of 5% CO2+95% nitrogen. Fetal bovine serum (FBS) was added to produce an Eagle's pH adjusted MEM containing 10% FBS. Attached V79-4 cells were harvested with EDTA-trypsin and diluted in 25 mL of the pH adjusted MEM at a concentration of 3×10^5 cells/mL. To this solution was added an amount of a stock solution of pimonidazole HCl or CCI-103F to produce a final concentration of 200 uM. The cell solution was then incubated under an atmosphere of 5% CO2+95% nitrogen with agitation for 3 hours. Cell lysates were analyzed by ELISA and the data normalized to protein content. The experiments for both markers were performed in triplicate.

[2] = humans; cited from earlier work
[3] = system: spontaneous canine tumors; test: immunostaining of hypoxia marker adducts in biopsies of spontaneous canine tumors; assay type: in vivo, dogs
Excerpt: Weakly basic 2-nitroimidazole hypoxia compounds of the invention are more efficient at detecting fluctuating hypoxia than are compounds that lack a weakly basic moiety when measured in large spontaneous canine tumors analogous to those occurring in humans. The hydrochloride salt of the weakly basic hypoxia marker, pimonidazole, was given to 12 dogs at a dosage of 0.5 gm/m^2 body surface area. Seven hours later, all 12 dogs received CCI-103F, a marker that lacks a weakly basic moiety. Two to four, widely separated biopsy samples were taken from viable regions in each tumor and immediately placed in cold 10% neutral buffered formalin. The specimens were fixed for 18-24 hours at 4° C. and then transferred into cold 70% ethanol and stored at 4° C. until mounted into paraffin blocks. Sections from formalin-fixed paraffin-embedded biopsy samples were immunostained for pimonidazole and CCI-103F binding using primary rabbit polyclonal antisera to pimonidazole and CCI-103F adducts respectively. Immunostained sections were exhaustively scanned at 400× by means of an Axioskop 50 microscope and Fluar objective and the percent immunostaining for pimonidazole and CCI-103F adducts was measured.

central nervous system = details: clinical use, 0.5 g/m2; 750-1000 mg/patient; 50% of the maximally tolerated single dose; cited from earlier work
[4] = cited from earlier work

## O=[N+]([O-])c1nccn1CC(O)COC(C(F)(F)F)C(F)(F)F (centres unmarked) [CCI-103F]
V79 cells; pH 6.4
  Ci/Ce in V79 cells: ~1.0
V79 cells; pH 6.8
  Ci/Ce in V79 cells: ~1.0
V79 cells; pH 7.4
  Ci/Ce in V79 cells: ~1.0
[1]; pH 6.4
  binding (ng/g protein ± SE): 90 ± 7 ng/g protein
[1]; pH 6.8
  binding (ng/g protein ± SE): 118 ± 17 ng/g protein
[1]; pH 7.4
  binding (ng/g protein ± SE): 125 ± 5 ng/g protein

## O=C(Cn1ccnc1[N+](=O)[O-])NCC(F)(F)C(F)(F)F [EF5, 2-(2-nitro-1H-imidazol-1-yl)-N-(2,2,3,3-pentafluoropropyl)-acetamide]
[2]
  plasma half-life (t1/2): 11.7 ± 2.7 h

## COCC(O)Cn1ccnc1[N+](=O)[O-] (centres unmarked) [misonidazole]
[2]
  plasma half-life (t1/2): 9.3 h

## O=[N+]([O-])c1nccn1CC(O)CN1CCCCC1 (centres unmarked) [pimonidazole, 1-(2-hydroxy-3-piperidinopropyl)-2-nitroimidazole]
[3]; 12 dogs, pimonidazole HCl 0.5 gm/m^2, CCI-103F seven hours later, paired t test
  extent of immunostaining relative to CCI-103F, factor on average: 1.25
[3]; regions of one canine tumor, FIGS. 1A-1D
  extent of binding relative to CCI-103F within a single tumor: greatly exceeded it in other regions
Central nervous system
  central nervous system (CNS) effects: extremely low frequency of even the mildest of central nervous system (CNS) effects
[2]
  plasma half-life (t1/2): 5.1 ± 0.8 h
[4]
  pKa: 8.7
V79 cells; pH 6.4
  Ci/Ce in V79 cells: 1.0
V79 cells; pH 6.8
  Ci/Ce in V79 cells: 1.6
V79 cells; pH 7.4
  Ci/Ce in V79 cells: 3.3
[1]; pH 6.4
  binding (ng/g protein ± SE): 144 ± 15 ng/g protein
[1]; pH 6.4 to 7.4, anoxic V79-4 cells
  intensity of binding compared with CCI-103F: greater than that for CCI-103F at all pH levels tested
[1]; pH 6.8
  binding (ng/g protein ± SE): 293 ± 19 ng/g protein
[1]; pH 7.4
  binding (ng/g protein ± SE): 363 ± 22 ng/g protein
